Laboratory results as given in PubChem BioAssay (NCI).
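Five concentrations, 48 hours, 96-well plates. Here, GI50 denotes the concentration required for 50% inhibition of growth. TGI denotes the concentration required for complete inhibition of growth.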

How the values were obtained:
Experiment in all cases: NCI tumour cell line growth inhibition, 48 h
[1] = system: OVCAR-4 ovarian
[2] = system: RXF 393 renal
[3] = system: HS 578T breast
[4] = system: UACC-62 melanoma
[5] = system: MDA-MB-435
[6] = system: OVCAR-5 ovarian
[7] = system: BT-549 breast
[8] = system: HCC-2998 colon
[9] = system: HOP-92 NSCLC
[10] = system: 786-0 renal
[11] = system: PC-3 prostate
[12] = system: SW-620 colon
[13] = system: ACHN renal
[14] = system: MCF7 breast
[15] = system: SN12C renal
[16] = system: UO-31 renal
[17] = system: A498 renal
[18] = system: T-47D breast
[19] = system: NCI-H522 lung
[20] = system: NCI-H460 lung
[21] = system: NCI/ADR-RES ovarian
[22] = system: HCT-116 colon
[23] = system: CAKI-1 renal
[24] = system: TK-10 renal
[25] = system: SK-MEL-5 melanoma
[26] = system: OVCAR-8 ovarian
[27] = system: HL-60(TB) leukemia
[28] = system: RPMI-8226 leukemia
[29] = system: SK-MEL-2 melanoma
[30] = system: IGROV1 ovarian
[31] = system: LOX IMVI melanoma
[32] = system: NCI-H23 lung
[33] = system: K-562 leukemia
[34] = system: U251 CNS
[35] = system: EKVX NSCLC
[36] = system: SK-MEL-28 melanoma
[37] = system: SK-OV-3 ovarian
[38] = system: KM12 colon
[39] = system: HT29 colon
[40] = system: CCRF-CEM leukemia
[41] = system: SF-295 CNS
[42] = system: SNB-75 CNS
[43] = system: A549 NSCLC
[44] = system: SR leukemia
[45] = system: DU-145 prostate
[46] = system: SF-268 CNS
[47] = system: MOLT-4 leukemia
[48] = system: COLO 205 colon
[49] = system: MALME-3M melanoma
[50] = system: UACC-257 melanoma
[51] = system: SNB-19 CNS
[52] = system: OVCAR-3 ovarian
[53] = system: NCI-H226 lung
[54] = system: HCT-15 colon
[55] = system: HOP-62 NSCLC
[56] = system: MDA-MB-231 breast
[57] = system: M14 melanoma
[58] = system: SF-539 CNS

Structure (SMILES): Nc1nc2c(c3ncccc13)C(c1cccc(Br)c1)Cc1ncccc1-2 (stereo unspecified)
- GI50 [1]: 7.13 µM
- TGI [1]: 41 µM
- GI50 [2]: 0.765 µM
- TGI [2]: 4.06 µM
- GI50 [3]: 2.9 µM
- TGI [3]: 23.5 µM
- GI50 [4]: 0.436 µM
- TGI [4]: 17.4 µM
- GI50 [5]: 0.256 µM
- TGI [5]: 0.761 µM
- GI50 [6]: 7.84 µM
- TGI [6]: 31.1 µM
- GI50 [7]: 0.681 µM
- TGI [7]: 6.16 µM
- GI50 [8]: 2.83 µM
- TGI [8]: 13.7 µM
- GI50 [9]: 0.95 µM
- TGI [9]: 15.5 µM
- GI50 [10]: 1.36 µM
- TGI [10]: 12 µM
- GI50 [11]: 0.791 µM
- TGI [11]: 18.5 µM
- GI50 [12]: 0.479 µM
- TGI [12]: 21.8 µM
- GI50 [13]: 1.84 µM
- TGI [13]: 34.8 µM
- GI50 [14]: 0.37 µM
- TGI [14]: 18.1 µM
- GI50 [15]: 3.51 µM
- TGI [15]: 33.8 µM
- GI50 [16]: 2.6 µM
- TGI [16]: 24.2 µM
- GI50 [17]: 0.304 µM
- TGI [17]: 1.6 µM
- GI50 [18]: 0.524 µM
- TGI [18]: 38.7 µM
- GI50 [19]: 0.503 µM
- TGI [19]: 11.6 µM
- GI50 [20]: 0.492 µM
- TGI [20]: 11 µM
- GI50 [21]: 0.408 µM
- TGI [21]: 15.1 µM
- GI50 [22]: 0.442 µM
- TGI [22]: 11.4 µM
- GI50 [23]: 0.749 µM
- TGI [23]: 50.4 µM
- GI50 [24]: 7.94 µM
- TGI [24]: 56.2 µM
- GI50 [25]: 0.576 µM
- TGI [25]: 14.3 µM
- GI50 [26]: 5.24 µM
- TGI [26]: 58 µM
- GI50 [27]: 0.291 µM
- TGI [27]: 7.86 µM
- GI50 [28]: 5.43 µM
- TGI [28]: 48.7 µM
- GI50 [29]: 0.871 µM
- TGI [29]: 29.6 µM
- GI50 [30]: 2.64 µM
- TGI [30]: 34.3 µM
- GI50 [31]: 0.647 µM
- TGI [31]: 15.9 µM
- GI50 [32]: 4.52 µM
- TGI [32]: 33 µM
- GI50 [33]: 0.539 µM
- TGI [33]: > 100 µM
- GI50 [34]: 0.625 µM
- TGI [34]: 12.7 µM
- GI50 [35]: 3.07 µM
- TGI [35]: 80.8 µM
- GI50 [36]: 2.74 µM
- TGI [36]: 22.6 µM
- GI50 [37]: 0.74 µM
- TGI [37]: 17.4 µM
- GI50 [38]: 0.433 µM
- TGI [38]: 13.1 µM
- GI50 [39]: 0.422 µM
- TGI [39]: 11.4 µM
- GI50 [40]: 0.726 µM
- TGI [40]: 38.6 µM
- GI50 [41]: 0.828 µM
- TGI [41]: 12.4 µM
- GI50 [42]: 0.3 µM
- TGI [42]: 13.4 µM
- GI50 [43]: 1.88 µM
- TGI [43]: 39.2 µM
- GI50 [44]: 0.377 µM
- TGI [44]: 32.7 µM
- GI50 [45]: 1.13 µM
- TGI [45]: 13.7 µM
- GI50 [46]: 0.808 µM
- TGI [46]: 20.1 µM
- GI50 [47]: 0.705 µM
- TGI [47]: 31.8 µM
- GI50 [48]: 0.665 µM
- TGI [48]: 3.81 µM
- GI50 [49]: 11.5 µM
- TGI [49]: 31.4 µM
- GI50 [50]: 18.2 µM
- TGI [50]: 54.7 µM
- GI50 [51]: 11.5 µM
- TGI [51]: 25 µM
- GI50 [52]: 0.28 µM
- TGI [52]: 0.858 µM
- GI50 [53]: 18.8 µM
- TGI [53]: 67.4 µM
- GI50 [54]: 0.504 µM
- TGI [54]: 15.1 µM
- GI50 [55]: 0.88 µM
- TGI [55]: 21.5 µM
- GI50 [56]: 1.65 µM
- TGI [56]: 18 µM
- GI50 [57]: 0.509 µM
- TGI [57]: 12.6 µM

Structure (SMILES): Nc1nc(/C=C\c2ccc([N+](=O)[O-])cc2)nc(N2CCN(c3ccccc3)CC2)n1
- GI50 [1]: 53.3 µM
- TGI [1]: > 100 µM
- GI50 [2]: 29.3 µM
- TGI [2]: 93 µM
- GI50 [3]: 80 µM
- TGI [3]: > 100 µM
- GI50 [4]: 18.9 µM
- TGI [4]: 43.6 µM
- GI50 [5]: 20.5 µM
- TGI [5]: 41.7 µM
- GI50 [6]: 89 µM
- TGI [6]: > 100 µM
- GI50 [7]: 35.7 µM
- TGI [7]: > 100 µM
- GI50 [8]: 41 µM
- TGI [8]: 96.2 µM
- GI50 [9]: 44.2 µM
- TGI [9]: > 100 µM
- GI50 [10]: 45.8 µM
- TGI [10]: > 100 µM
- GI50 [11]: 23.7 µM
- TGI [11]: 67.6 µM
- GI50 [12]: 40.4 µM
- TGI [12]: > 100 µM
- GI50 [13]: 30.2 µM
- TGI [13]: > 100 µM
- GI50 [14]: 34.2 µM
- TGI [14]: > 100 µM
- GI50 [15]: 42.3 µM
- TGI [15]: > 100 µM
- GI50 [16]: 27.7 µM
- TGI [16]: > 100 µM
- GI50 [17]: 37.6 µM
- TGI [17]: > 100 µM
- GI50 [18]: 23.1 µM
- TGI [18]: 61 µM
- GI50 [19]: 18.4 µM
- TGI [19]: 50.5 µM
- GI50 [20]: 35.5 µM
- TGI [20]: > 100 µM
- GI50 [21]: 25.3 µM
- TGI [21]: 77.3 µM
- GI50 [22]: 24.8 µM
- TGI [22]: > 100 µM
- GI50 [23]: 22.5 µM
- TGI [23]: 45.8 µM
- GI50 [24]: 20.5 µM
- TGI [24]: 65 µM
- GI50 [25]: 18.2 µM
- TGI [25]: 33.1 µM
- GI50 [26]: 29.7 µM
- TGI [26]: > 100 µM
- GI50 [27]: 20 µM
- TGI [27]: 58.9 µM
- GI50 [28]: 22.9 µM
- TGI [28]: > 100 µM
- GI50 [29]: 30.2 µM
- TGI [29]: 81.3 µM
- GI50 [30]: 20.1 µM
- TGI [30]: 54.1 µM
- GI50 [31]: 30.2 µM
- TGI [31]: > 100 µM
- GI50 [33]: 26.5 µM
- TGI [33]: 79.6 µM
- GI50 [34]: 38.2 µM
- TGI [34]: > 100 µM
- GI50 [35]: 43.4 µM
- TGI [35]: > 100 µM
- GI50 [36]: 41.7 µM
- TGI [36]: > 100 µM
- GI50 [37]: 28.7 µM
- TGI [37]: 77 µM
- GI50 [38]: 20.7 µM
- TGI [38]: 53.8 µM
- GI50 [39]: 35.3 µM
- TGI [39]: > 100 µM
- GI50 [40]: 23.2 µM
- TGI [40]: 74.6 µM
- GI50 [41]: 38.4 µM
- TGI [41]: > 100 µM
- GI50 [42]: 39.8 µM
- TGI [42]: > 100 µM
- GI50 [58]: > 100 µM
- TGI [58]: > 100 µM
- GI50 [43]: 38.2 µM
- TGI [43]: > 100 µM
- GI50 [44]: 21.3 µM
- TGI [44]: 60.2 µM
- GI50 [45]: 40 µM
- TGI [45]: > 100 µM
- GI50 [46]: 96.7 µM
- TGI [46]: > 100 µM
- GI50 [47]: 27.4 µM
- TGI [47]: > 100 µM
- GI50 [48]: 19 µM
- TGI [48]: 55.2 µM
- GI50 [50]: 25.1 µM
- TGI [50]: 61.5 µM
- GI50 [51]: > 100 µM
- TGI [51]: > 100 µM
- GI50 [52]: 26.9 µM
- TGI [52]: 69.6 µM
- GI50 [53]: 40.8 µM
- TGI [53]: > 100 µM
- GI50 [54]: 25.3 µM
- TGI [54]: > 100 µM
- GI50 [55]: 36.2 µM
- TGI [55]: > 100 µM
- GI50 [56]: 20.8 µM
- TGI [56]: 58.1 µM
- GI50 [57]: 25.6 µM
- TGI [57]: 62.9 µM
